Earlier results as cited in patent publication US8178322B2, “Method for producing an L-amino acid or a nucleic acid” (Ajinomoto Co., Inc., priority 2007, dated 2012).
In brackets after ≈: the same amount, converted by molar mass. Like-named read-outs stand apart in the source and are kept apart here.

Assays:
[1] = not given; remark: listed apart in the source

| SMILES | Solubility (20° C.) | Solubility (40° C.) | Solubility (20° C.) [1] | Solubility (40° C.) [1] |
| --- | --- | --- | --- | --- |
| N[C@@H](Cc1c[nH]cn1)C(=O)O [L-histidine] | 38 mg/mL (≈ 245 mM) | 58 mg/mL (≈ 374 mM) | – | – |
| N[C@@H](Cc1ccccc1)C(=O)O [L-phenylalanine] | 27.4 mg/mL (≈ 166 mM) | 38 mg/mL (≈ 230 mM) | – | – |
| N[C@@H](Cc1c[nH]c2ccccc12)C(=O)O [L-tryptophan] | 10.6 mg/mL (≈ 51.9 mM) | 14 mg/mL (≈ 68.6 mM) | – | – |
| CC(C)[C@H](N)C(=O)O [L-valine] | 57.5 mg/mL (≈ 491 mM) | 65 mg/mL (≈ 555 mM) | – | – |
| Nc1ncnc2c1ncn2[C@@H]1O[C@H](CO)[C@@H](O)[C@H]1O [adenosine] | – | – | 3.0 mg/mL (≈ 11.2 mM) | 8.3 mg/mL (≈ 31.1 mM) |
| Nc1nc2c(ncn2[C@@H]2O[C@H](CO)[C@@H](O)[C@H]2O)c(=O)[nH]1 [guanosine] | – | – | 0.42 mg/mL (≈ 1.48 mM) | 1.05 mg/mL (≈ 3.71 mM) |
| Nc1nc2c(ncn2[C@@H]2O[C@H](COP(=O)(O)O)[C@@H](O)[C@H]2O)c(=O)[nH]1 [guanylic acid, guanosine-5′-monophosphate] | – | – | 206 mg/mL (≈ 567 mM) | 260 mg/mL (≈ 716 mM) |
| OC[C@H]1O[C@@H](n2cnc3c(O)ncnc32)[C@H](O)[C@@H]1O [inosine] | – | – | 44.4 mg/mL (≈ 166 mM) | 83.4 mg/mL (≈ 311 mM) |

Other lines, results leading:

| Solubility (20° C.) | Solubility (40° C.) | Solubility (20° C.) [1] | Solubility (40° C.) [1] | SMILES |
| --- | --- | --- | --- | --- |
| 160 mg/mL (≈ 1320 mM) | – | – | – | N[C@@H](CS)C(=O)O [L-cysteine] |
| 0.09 mg/mL (≈ 0.375 mM) | – | – | – | N[C@@H](CSSC[C@H](N)C(=O)O)C(=O)O [L-cystine] |
| 37.3 mg/mL (≈ 255 mM) | 66 mg/mL (≈ 452 mM) | – | – | NC(=O)CC[C@H](N)C(=O)O [L-glutamine] |
| – | 44 mg/mL (≈ 335 mM) | – | – | CC[C@H](C)[C@H](N)C(=O)O [L-isoleucine] |
| 23.8 mg/mL (≈ 181 mM) | 26 mg/mL (≈ 198 mM) | – | – | CC(C)C[C@H](N)C(=O)O [L-leucine] |
